Test results published in PubChem BioAssay AID256 (DTP/NCI, 2004).
Several values for one entry are separate records, joined by “and”; a condition that tells them apart may be missing. Equal entries are not always repeated. Toxic doses and inconclusive results are not listed. How the source made its calls: active means survival T/C of 150% or more; inactive means T/C below 125% in these data.

Test system: CD2F1 mice, L1210 leukemia ip, survival T/C
Assay: NCI In Vivo Anticancer Drug Screen. Data for tumor model L1210 Leukemia (intraperitoneal) in CD2F1 (CDF1) mice
Details: endpoint: mean survival time, higher = longer survival
Outline: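 Ratio T/C, where T is the treated-group value and C the vehicle-dosed control value, from mice implanted with a transplantable tumor.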

[1] = dose: 100.0 mg/kg/injection, schedule: Q01DX009 (ip), vehicle: saline
[2] = dose: 100.0 mg/kg/injection, schedule: Q04DX003 (ip), vehicle: saline
[3] = dose: 200.0 mg/kg/injection, schedule: Q01DX009 (ip), vehicle: saline
[4] = dose: 200.0 mg/kg/injection, schedule: Q04DX003 (ip), vehicle: saline
[5] = dose: 100.0 mg/kg/injection, schedule: Q04DX003 (ip), vehicle: saline with Tween-80
[6] = dose: 200.0 mg/kg/injection, schedule: Q04DX003 (ip), vehicle: saline with Tween-80
[7] = dose: 400.0 mg/kg/injection, schedule: Q04DX003 (ip), vehicle: saline with Tween-80
[8] = dose: 100.0 mg/kg/injection, schedule: Q01DX009 (ip), vehicle: saline with Tween-80
[9] = dose: 200.0 mg/kg/injection, schedule: Q01DX009 (ip), vehicle: saline with Tween-80
[10] = dose: 50.0 mg/kg/injection, schedule: Q01DX009 (ip), vehicle: saline with Tween-80

Measured: T/C

Oc1ccc(Cl)cc1Cn1ccnc1
inactive: dose: 50.0 mg/kg/injection, schedule: Q01DX001 (ip), vehicle: saline 111 % of control | dose: 50.0 mg/kg/injection, schedule: Q01DX009 (ip), vehicle: saline 104 % of control | dose: 50.0 mg/kg/injection, schedule: Q04DX003 (ip), vehicle: saline 106 % of control | dose: 100.0 mg/kg/injection, schedule: Q01DX001 (ip), vehicle: saline 100 % of control | [1] 95 % of control and 110 % of control | dose: 100.0 mg/kg/injection, schedule: Q04DX002 (ip), vehicle: saline 115 % of control and 101 % of control | [2] 101 % of control | dose: 200.0 mg/kg/injection, schedule: Q01DX001 (ip), vehicle: saline 104 % of control | [3] 93 % of control and 109 % of control | dose: 200.0 mg/kg/injection, schedule: Q04DX002 (ip), vehicle: saline 103 % of control and 112 % of control | [4] 113 % of control

NC(=O)Nc1n[nH]c(-c2ccccc2)n1
inactive: [5] 93 % of control | [6] 91 % of control | [7] 91 % of control

CNC1CCC(C(=O)O)CC1 (stereo not drawn)
inactive: [1] 107 % of control | [3] 103 % of control | dose: 400.0 mg/kg/injection, schedule: Q01DX009 (ip), vehicle: saline 96 % of control

O=C1C(=O)c2cccc3cccc1c23
inactive: dose: 100.0 mg/kg/injection, schedule: Q01DX001 (ip), vehicle: saline with Tween-80 100 % of control | dose: 200.0 mg/kg/injection, schedule: Q01DX001 (ip), vehicle: saline with Tween-80 92 % of control | dose: 400.0 mg/kg/injection, schedule: Q01DX001 (ip), vehicle: saline with Tween-80 97 % of control

S=c1n(Cc2ccccc2)cnc2ncnn12
inactive: dose: 100.0 mg/kg/injection, schedule: Q04DX003 (ip), vehicle: Klucel (hydroxypropylcellulose) (HPC) 98 % of control | dose: 200.0 mg/kg/injection, schedule: Q04DX003 (ip), vehicle: Klucel (hydroxypropylcellulose) (HPC) 111 % of control

OC1COC(C(F)(F)F)(C(F)(F)F)C1 (stereo not drawn)
inactive: [5] 94 % of control | [6] 93 % of control | [7] 96 % of control

Cc1cn(CC(=O)c2cc3ccccc3[nH]2)c(=O)[nH]c1=O
inactive: dose: 100.0 mg/kg/injection, schedule: Q04DX002 (ip), vehicle: saline with Tween-80 93 % of control | dose: 200.0 mg/kg/injection, schedule: Q04DX002 (ip), vehicle: saline with Tween-80 93 % of control | dose: 400.0 mg/kg/injection, schedule: Q04DX002 (ip), vehicle: saline with Tween-80 101 % of control

O=C(COc1ccc(Cl)cc1)C1CSc2ccc(Cl)cc21 (stereo not drawn)
inactive: [8] 88 % of control | [5] 95 % of control | [9] 91 % of control | [6] 92 % of control | dose: 400.0 mg/kg/injection, schedule: Q01DX009 (ip), vehicle: saline with Tween-80 89 % of control | [7] 88 % of control

CC(C)(C)c1ccc(OCC(=O)O)cc1
inactive: dose: 100.0 mg/kg/injection, schedule: Q04DX003 (ip), vehicle: other 100 % of control | dose: 200.0 mg/kg/injection, schedule: Q04DX003 (ip), vehicle: other 101 % of control

O=C(C[n+]1cccc(C(=O)Nc2ccc(Cl)cc2)c1)NCc1ccccc1
inactive: [2] 97 % of control | [4] 94 % of control | dose: 400.0 mg/kg/injection, schedule: Q04DX003 (ip), vehicle: saline 102 % of control

COc1cc(Cl)ccc1NC(=O)Oc1ccc([N+](=O)[O-])cc1
inactive: [10] 96 % of control | [8] 96 % of control | [9] 100 % of control

C=CC(C)(C)c1ccccc1
inactive: [10] 93 % of control | [8] 96 % of control | [9] 98 % of control

COC(=O)C1C2(C)CCc3cc(OC)ccc3C2=CC(=O)C1(C)C(=O)OC (stereo not drawn)
inactive: dose: 100.0 mg/kg/injection, schedule: Q04DX003 (sc), vehicle: steriod suspending solution 97 % of control | dose: 200.0 mg/kg/injection, schedule: Q04DX003 (sc), vehicle: steriod suspending solution 103 % of control | dose: 400.0 mg/kg/injection, schedule: Q04DX003 (sc), vehicle: steriod suspending solution 98 % of control
